The values below come from patent US20130109682A1, “CYCLIC ETHER COMPOUNDS USEFUL AS KINASE INHIBITORS” (NOVARTIS AG, priority 2010, published 2013).

One test concerns the target T1, FLT3D835Y kinase (Homo sapiens, UniProt P36888, D835Y).
T1 sequence (P36888 27-993 D835Y): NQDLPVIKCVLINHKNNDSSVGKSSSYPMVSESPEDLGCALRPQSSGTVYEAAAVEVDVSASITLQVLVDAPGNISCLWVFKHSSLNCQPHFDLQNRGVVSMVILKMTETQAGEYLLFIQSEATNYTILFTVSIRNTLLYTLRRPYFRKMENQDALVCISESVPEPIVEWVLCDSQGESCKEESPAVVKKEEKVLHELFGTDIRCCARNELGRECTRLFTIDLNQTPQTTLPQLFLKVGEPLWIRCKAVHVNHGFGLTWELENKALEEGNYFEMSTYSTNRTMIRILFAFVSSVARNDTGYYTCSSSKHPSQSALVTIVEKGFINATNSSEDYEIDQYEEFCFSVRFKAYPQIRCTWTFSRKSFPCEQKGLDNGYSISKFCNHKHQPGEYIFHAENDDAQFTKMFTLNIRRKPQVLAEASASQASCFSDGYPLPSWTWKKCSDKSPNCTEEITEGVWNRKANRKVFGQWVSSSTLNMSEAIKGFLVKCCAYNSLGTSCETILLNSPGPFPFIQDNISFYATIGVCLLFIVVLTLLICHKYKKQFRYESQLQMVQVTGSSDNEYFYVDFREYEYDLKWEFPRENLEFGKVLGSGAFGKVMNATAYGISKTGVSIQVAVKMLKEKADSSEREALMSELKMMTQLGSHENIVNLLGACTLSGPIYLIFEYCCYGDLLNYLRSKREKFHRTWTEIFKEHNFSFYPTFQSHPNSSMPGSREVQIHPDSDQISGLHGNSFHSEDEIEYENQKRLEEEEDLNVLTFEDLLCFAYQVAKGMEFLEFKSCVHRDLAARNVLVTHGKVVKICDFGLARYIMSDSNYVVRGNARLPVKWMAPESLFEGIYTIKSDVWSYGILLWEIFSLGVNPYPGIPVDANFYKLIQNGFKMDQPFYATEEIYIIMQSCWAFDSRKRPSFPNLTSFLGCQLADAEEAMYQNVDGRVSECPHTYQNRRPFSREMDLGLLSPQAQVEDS
The test can be described thus: FLT3D835Y kinase inhibition assay (LanthaScreen TR-FRET). The conditions noted are these: read-out: FLT3 IC50. Type of test: biochemical. As to the method:
FLT3D835Y Kinase Inhibition Assay
LanthaScreen™ is the detection of Time-Resolved Fluorescence Resonance Energy Transfer (TR-FRET) using lanthanide chelates to measure interactions between various binding partners. The application of TR-FRET to assay kinase activity was first described by Mathis (1995). A TR-FRET assay was used to measure FLT3D835Y kinase inhibitory activity. The assay panel was run on a Biomek FX liquid handling workstations. To the assay plates containing […] compound or control solutions, 4.5 μL of buffer A (50 mM TRIS-HCl pH 7.4, 2 mM DTT, 0.02% Tween 20, 0.02 mM Na3VO4, H2O nanpure) including a generic concentration of ATP (2 μM f.c.) was added per well, followed by […] of buffer B (4 uM ATP in Buffer A) including a generic concentration of polyEAY (50 nM f.c.), FLT3D835Y kinase, and divalent cations. Final concentration of kinase and cations were: [FLT3D835Y kinase]=5.7 nM, [Mg]=3 mM, [Mn]=3 mM. After 1 hour of incubation the kinase reactions were stopped by the addition of 4.5 μL of stop solution D (50 mM EDTA, 20 mM TRIS-HCl pH 7.4, 0.04% NP-40) immediately followed by 4.5 μL of buffer A (50 mM TRIS-HCl pH 7.4, 2 mM DTT, 0.02% Tween 20, 0.02 mM Na3VO4, H2O nanpure) including the Tb-labeled P-20 antibody to give a total detection volume of […]. After an incubation time of 45 min in the dark, the plates were transferred into the Pherastar fluorescence reader for counting. The effect of compound on the enzymatic activity was obtained from the linear progress curves and determined from one reading (end point measurement).
Take `CC(C)[C@@H]1C[C@H](N)C[C@H](c2ccncc2NC(=O)c2nc(-c3ccccc3)cnc2N)O1` [Example 291, 3-amino-N-(4-((2R,4S,6S)-4-amino-6-isopropyltetrahydro-2H-pyran-2-yl)pyridin-3-yl)-6-phenylpyrazine-2-carboxamide]: the IC50 is 5.3 nM. As to `CC(C)(C)[C@@H]1O[C@H](c2ccncc2NC(=O)c2nc(-c3ccccc3)cnc2N)C[C@@H](N)[C@H]1O` [Example 227, 3-amino-N-(4-((2S,4R,5R,6S)-4-amino-6-tert-butyl-5-hydroxytetrahydro-2H-pyran-2-yl)pyridin-3-yl)-6-phenylpyrazine-2-carboxamide], the IC50 was 140 nM.

Take `CC[C@@H]1O[C@H](c2ccncc2NC(=O)c2nc(-c3ccccc3)cnc2N)C[C@H](N)[C@@]1(C)O` [Example 345, 3-amino-N-(4-((2S,4S,5R,6S)-4-amino-6-ethyl-5-hydroxy-5-methyltetrahydro-2H-pyran-2-yl)pyridin-3-yl)-6-phenylpyrazine-2-carboxamide]: the IC50 amounted to 920 nM.

Turning to `C[C@H]1O[C@@H](c2ccncc2NC(=O)c2nc(-c3ccccc3)cnc2N)C[C@@H](N)[C@]1(C)O` [Example 228, 3-amino-N-(4-((2R,4R,5S,6R)-4-amino-5-hydroxy-5,6-dimethyltetrahydro-2H-pyran-2-yl)pyridin-3-yl)-6-phenylpyrazine-2-carboxamide], the IC50 came out at 2.7 nM. `C[C@]1(O)[C@H](N)C[C@H](c2ccncc2NC(=O)c2nc(-c3ccccc3)cnc2N)O[C@@H]1C1CC1` [Example 344, 3-amino-N-(4-((2R,4R,5S,6R)-4-amino-6-cyclopropyl-5-hydroxy-5-methyltetrahydro-2H-pyran-2-yl)pyridin-3-yl)-6-phenylpyrazine-2-carboxamide]: the IC50 was determined as 10 nM. The same measure, in the same setting: the result for `C[C@@H]1O[C@H](c2ccncc2NC(=O)c2nc(-c3ccccc3)cnc2N)C[C@H](N)[C@@]1(C)O` [Example 229, 3-amino-N-(4-((2S,4S,5R,6S)-4-amino-5-hydroxy-5,6-dimethyltetrahydro-2H-pyran-2-yl)pyridin-3-yl)-6-phenylpyrazine-2-carboxamide] reads 93 nM; that for `CC(C)(C)[C@H]1O[C@@H](c2ccncc2NC(=O)c2nc(-c3ccccc3)cnc2N)C[C@@H](N)[C@@H]1O` [Example 354, 3-amino-N-(4-((2R,4R,5S,6R)-4-amino-6-tert-butyl-5-hydroxytetrahydro-2H-pyran-2-yl)pyridin-3-yl)-6-phenylpyrazine-2-carboxamide], 3.1 nM; that for `CC(C)[C@@H]1O[C@H](c2ccncc2NC(=O)c2nc(-c3ccccc3)cnc2N)C[C@H](N)[C@H]1O` [Example 240, 3-amino-N-(4-((2S,4S,5R,6S)-4-amino-5-hydroxy-6-isopropyltetrahydro-2H-pyran-2-yl)pyridin-3-yl)-6-phenylpyrazine-2-carboxamide], 1200 nM. For `C[C@@]1(O)[C@H](N)C[C@@H](c2ccncc2NC(=O)c2nc(-c3ccccc3)cnc2N)OC12CC2` [Example 352, 3-amino-N-(4-((5S,7R,8R)-7-amino-8-hydroxy-8-methyl-4-oxaspiro[2.5]octan-5-yl)pyridin-3-yl)-6-phenylpyrazine-2-carboxamide], the IC50 amounted to 2.5 nM.

As for `CC[C@@H]1O[C@H](c2ccncc2NC(=O)c2nc(-c3ccccc3)cnc2N)C[C@H](N)[C@H]1O` [Example 342, 3-amino-N-(4-((2S,4S,5R,6S)-4-amino-6-ethyl-5-hydroxytetrahydro-2H-pyran-2-yl)pyridin-3-yl)-6-phenylpyrazine-2-carboxamide], the IC50 worked out at 12 nM.

Another test has as its target cABLT315 kinase (Homo sapiens, UniProt P00519). The test can be described thus: cABLT315 kinase Caliper assay. The format is biochemical.
Settings: not given
How it is done: PKCα and cABLT315 Kinase Caliper Assays
Assays were performed in 384 well microtiter plates. Each assay plate contained 8-point serial dilutions for test compounds, as well as two 16-point serial dilutions of staurosporine as reference compound, plus 16 high- and 16 low controls. Liquid handling and incubation steps were done on a Thermo CatX workstation equipped with a Innovadyne Nanodrop Express. Between pipetting steps, tips were cleaned in wash cycles using wash buffer. Plates with terminated kinase reactions were transferred to the Caliper LC3000 workstations for reading. Phosphorylated and unphosphorylated peptides were separated using the Caliper microfluidic mobilitishift technology and Kinase activities were calculated from the amounts of formed phospho-peptide.
Kinase reactions were prepared in 384 low volume plates by the following sequence:
1. 0.05 μA Compound (start with 1.8 mM in 90% DMSO/10% H2O)
2. +4.5 μl 2× peptide/ATP solution
3. +4.5 μl 2× enzyme solution
4. Incubate for 60 min at 30° C.
4. +16 μl stop/run buffer
Independent of the kinase, all reactions were done performed in 50 mM HEPES, pH 7.5, 1 mM DTT, 0.02% Tween20, 0.02% BSA, and 0.6% DMSO. For cABLT315 assay specific details were as follows: [cABLT315 kinase]=2.4 nM, [ATP]=10 uM, [peptide]=2 uM, [Mg]=10 mM. For PKCα, assay specific details were as follows: [kinase]=0.012 nM, [ATP]=17 uM, [peptide]=1 uM, [Mg]=7 mM, [Ca]=0.2 mM.
`CC[C@H]1O[C@@H](c2ccncc2NC(=O)c2nc(-c3ccccc3)ncc2N)C[C@@H](O)[C@@H]1O` [Example 39, 5-amino-N-(4-((2R,4R,5S,6R)-6-ethyl-4,5-dihydroxytetrahydro-2H-pyran-2-yl)pyridin-3-yl)-2-phenylpyrimidine-4-carboxamide]: the IC50 came to 8000 nM. As for `C[C@H]1O[C@@H](c2ccncc2NC(=O)c2nc(-c3ccccc3)ncc2N)C[C@@H](O)[C@]1(C)O` [Example 32, 5-amino-N-(4-((2R,4R,5S,6R)-4,5-dihydroxy-5,6-dimethyltetrahydro-2H-pyran-2-yl)pyridin-3-yl)-2-phenylpyrimidine-4-carboxamide], the IC50 is 9000 nM. The compound `C[C@H]1O[C@@H](c2ccncc2NC(=O)c2nc(-c3ccccc3)cnc2N)[C@H](F)[C@@H](O)[C@]1(C)O` [Example 58, 3-amino-N-(4-((2S,3R,4S,5S,6R)-3-fluoro-4,5-dihydroxy-5,6-dimethyltetrahydro-2H-pyran-2-yl)pyridin-3-yl)-6-phenylpyrazine-2-carboxamide] came in with an IC50 of 660 nM. Still for that read-out and setting: in the case of `C[C@H]1O[C@@H](c2ccncc2NC(=O)c2nc(-c3ccccc3)cnc2N)C[C@@H](O)[C@]1(C)O` [Example 84, 3-amino-N-(4-((2R,4R,5S,6R)-4,5-dihydroxy-5,6-dimethyltetrahydro-2H-pyran-2-yl)pyridin-3-yl)-6-phenylpyrazine-2-carboxamide] it was 86 nM; in that of `C[C@@H]1O[C@H](c2ccncc2NC(=O)c2nc(-c3ccccc3)cnc2N)C[C@H](O)[C@@]1(C)O` [Example 86, 3-amino-N-(4-((2S,4S,5R,6S)-4,5-dihydroxy-5,6-dimethyltetrahydro-2H-pyran-2-yl)pyridin-3-yl)-6-phenylpyrazine-2-carboxamide], 700 nM. With `C=C1[C@@H](O)C[C@@H](c2ccncc2NC(=O)c2nc(-c3ccccc3)cnc2N)OC12CC2` [Example 5, 3-amino-N-(4-((5S,7S)-7-hydroxy-8-methylene-4-oxaspiro[2.5]octan-5-yl)pyridin-3-yl)-6-phenylpyrazine-2-carboxamide], half-maximal inhibition (IC50) was put at 70 nM. `Nc1ncc(-c2ccccc2)nc1C(=O)Nc1cnccc1[C@H]1C[C@@H](O)[C@H](O)[C@@H](CCl)O1` [Example 36, 3-amino-N-(4-((2R,4R,5S,6S)-6-(chloromethyl)-4,5-dihydroxytetrahydro-2H-pyran-2-yl)pyridin-3-yl)-6-phenylpyrazine-2-carboxamide] showed an IC50 of 30 nM. For the compound `C[C@@H]1O[C@H](c2ccncc2NC(=O)c2nc(-c3ccccc3)cnc2N)[C@@H](F)[C@H](O)[C@@]1(C)O` [Example 63, 3-amino-N-(4-((2R,3S,4R,5R,6S)-3-fluoro-4,5-dihydroxy-5,6-dimethyltetrahydro-2H-pyran-2-yl)pyridin-3-yl)-6-phenylpyrazine-2-carboxamide], the IC50 is 650 nM.
